Data on 26 compounds can be found in ChEMBL document CHEMBL2311389, “Pyrazole-based arylalkyne cathepsin S inhibitors. Part III: modification of P4 region” (Bioorg Med Chem Lett, 2013).

≈ marks a conversion by molar mass, not a printed value.

Series [1] addresses T1, Cathepsin S (Homo sapiens, UniProt P25774). The series is described as follows: Inhibition of cathepsin S in human JY cells assessed as invariant chain-li degradation. Type of series: cell-based.
Series [2] is described as follows: Equilibrium solubility in pH 7.0 phosphate buffer by LC/MS method. Type of series: physicochemical.
For series [3], the target named is T1, Cathepsin S. The series is described as follows: Inhibition of human cathepsin S.
Series [4] concerns the target Voltage-gated inwardly rectifying potassium channel KCNH2 (Homo sapiens, UniProt Q12809). Description: Inhibition of human ERG by patch clamp assay. Background: The patch-clamp technique gives a direct electrical read-out from membranes.

T1 sequence (P25774 whole entry): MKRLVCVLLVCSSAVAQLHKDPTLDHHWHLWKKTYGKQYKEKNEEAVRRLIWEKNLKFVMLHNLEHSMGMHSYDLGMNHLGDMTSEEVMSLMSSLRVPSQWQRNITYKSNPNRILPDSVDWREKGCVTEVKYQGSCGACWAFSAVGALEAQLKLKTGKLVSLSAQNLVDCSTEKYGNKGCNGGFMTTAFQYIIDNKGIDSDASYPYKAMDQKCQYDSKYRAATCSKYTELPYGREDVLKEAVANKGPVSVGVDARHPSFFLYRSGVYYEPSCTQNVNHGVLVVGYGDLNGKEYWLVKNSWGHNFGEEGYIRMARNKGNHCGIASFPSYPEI
Chain of Voltage-gated inwardly rectifying potassium channel KCNH2 (Q12809 whole entry): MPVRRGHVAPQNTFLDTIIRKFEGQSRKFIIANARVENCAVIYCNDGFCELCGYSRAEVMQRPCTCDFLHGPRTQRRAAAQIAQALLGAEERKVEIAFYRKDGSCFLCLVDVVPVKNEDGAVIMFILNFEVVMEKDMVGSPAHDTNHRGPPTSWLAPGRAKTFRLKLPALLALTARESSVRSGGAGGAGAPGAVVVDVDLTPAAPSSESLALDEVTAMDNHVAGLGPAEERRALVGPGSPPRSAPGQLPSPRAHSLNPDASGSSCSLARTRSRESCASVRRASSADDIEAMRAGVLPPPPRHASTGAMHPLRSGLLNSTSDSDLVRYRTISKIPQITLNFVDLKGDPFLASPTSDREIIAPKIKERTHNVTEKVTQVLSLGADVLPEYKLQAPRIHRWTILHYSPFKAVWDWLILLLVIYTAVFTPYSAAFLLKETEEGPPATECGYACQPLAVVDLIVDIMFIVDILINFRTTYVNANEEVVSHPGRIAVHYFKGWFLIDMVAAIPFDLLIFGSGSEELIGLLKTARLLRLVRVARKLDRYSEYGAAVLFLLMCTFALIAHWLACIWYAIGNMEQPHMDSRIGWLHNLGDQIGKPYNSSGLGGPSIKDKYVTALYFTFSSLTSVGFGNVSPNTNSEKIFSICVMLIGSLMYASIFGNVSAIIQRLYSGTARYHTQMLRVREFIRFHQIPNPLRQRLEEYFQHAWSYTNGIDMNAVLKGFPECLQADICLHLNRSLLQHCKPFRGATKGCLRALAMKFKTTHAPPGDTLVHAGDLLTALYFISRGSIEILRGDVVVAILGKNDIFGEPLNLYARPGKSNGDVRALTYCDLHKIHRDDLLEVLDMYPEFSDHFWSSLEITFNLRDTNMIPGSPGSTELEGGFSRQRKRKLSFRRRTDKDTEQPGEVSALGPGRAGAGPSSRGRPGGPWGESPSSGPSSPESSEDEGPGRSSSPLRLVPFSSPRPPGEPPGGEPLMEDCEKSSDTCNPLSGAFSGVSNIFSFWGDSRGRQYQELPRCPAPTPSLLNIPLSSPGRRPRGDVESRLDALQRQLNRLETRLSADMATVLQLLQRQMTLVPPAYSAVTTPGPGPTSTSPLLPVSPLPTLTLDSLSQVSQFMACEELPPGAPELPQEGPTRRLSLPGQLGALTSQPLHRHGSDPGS

Take `NC(=O)N1CCc2c(c(-c3ccc(Cl)c(C#Cc4ccc(COCc5cccnc5)cc4)c3)nn2CCCN2CCSCC2)C1`: the IC50 (as a rule, the concentration that inhibits the measured activity by half) on Cathepsin S [1] was above 10000 nM.

On to `NC(=O)N1CCc2c(c(-c3ccc(Cl)c(C#Cc4ccc(Cl)c(C(=O)N5CCNCC5)c4)c3)nn2CCCN2CCSCC2)C1`, for which the solubility (thermodynamic) (in general, the concentration in solution at equilibrium with solid) in series [2] was found to be 66 µM (≈ 44 µg/mL). For the same compound, the IC50 on Cathepsin S [1] stood at 630 nM. Compound `NC(=O)N1CCc2c(c(-c3ccc(Cl)c(C#Cc4ccc(CNCc5ccc(Cl)cc5)cc4)c3)nn2CCCN2CCC(C(F)(F)F)CC2)C1` gave a thermodynamic solubility in series [2] below 1 µM. Moreover, the IC50 at Cathepsin S [1] was found to be 690 nM; against Cathepsin S [3] it was 60 nM. `NC(=O)N1CCc2c(c(-c3ccc(Cl)c(C#Cc4ccc(COCC5CNCCO5)cc4)c3)nn2CCCN2CCSCC2)C1` (racemic): the thermodynamic solubility in series [2] was found to be 46 µM (≈ 29.9 µg/mL). The IC50 at Cathepsin S [1] was above 10000 nM. `NC(=O)N1CCc2c(c(-c3ccc(Cl)c(C#Cc4ccc(CNCc5ccc(Cl)cc5)cc4)c3)nn2CCCN2CCSCC2)C1` showed a thermodynamic solubility in series [2] below 1 µM. In series [4], the “inhibition (INH)” value is “Not Active”. For the same compound, the IC50 at Cathepsin S [1] worked out at 870 nM; against Cathepsin S [3], 70 nM. Compound `NC(=O)C(=O)N1CCc2c(c(-c3ccc(Cl)c(C#Cc4ccc(CNCc5ccc(Cl)cc5)cc4)c3)nn2CCCN2CCSCC2)C1` returned a solubility (thermodynamic) in series [2] below 1 µM. Also, the IC50 on Cathepsin S [1] stood at 270 nM. Turning to `NC(=O)N1CCc2c(c(-c3ccc(Cl)c(C#Cc4ccc(CNCc5ccc(Cl)cc5)cc4)c3)nn2CCCN2CCCCC2)C1`, the IC50 on Cathepsin S [1] turned out to be 200 nM.

As for `CN(C)S(=O)(=O)N1CCc2c(c(-c3ccc(Cl)c(C#Cc4ccc(CNCc5ccc(Cl)cc5)cc4)c3)nn2CCCN2CCOCC2)C1`, the IC50 at Cathepsin S [1] amounted to 5000 nM. For the compound `CC(=O)NCC(=O)N1CCc2c(c(-c3ccc(Cl)c(C#Cc4ccc(CNCc5ccc(Cl)cc5)cc4)c3)nn2CCCN2CCOCC2)C1`, on Cathepsin S [1], the IC50 was found to be 1100 nM. Turning to `NC(=O)N1CCc2c(c(-c3ccc(Cl)c(C#Cc4ccc(C(=O)NCc5cccnc5)cc4)c3)nn2CCCN2CCSCC2)C1`, the IC50 on Cathepsin S [1] was above 10000 nM. `NC(=O)N1CCc2c(c(-c3ccc(Cl)c(C#Cc4ccc(C(=O)NCc5ccc(Cl)cc5)cc4)c3)nn2CCCN2CCSCC2)C1`: the IC50 on Cathepsin S [1] is above 10000 nM. On to `NC(=O)N1CCc2c(c(-c3ccc(Cl)c(C#Cc4ccc(Cl)c(C(=O)NCC5CCCNC5)c4)c3)nn2CCCN2CCSCC2)C1` (racemic), for which, on Cathepsin S [1], the 50% inhibitory concentration (IC50) stood at 510 nM. In series [2], `NC(=O)C(=O)N1CCc2c(c(-c3ccc(C(F)(F)F)c(SCCN4CCC(F)CC4)c3)nn2C[C@@H](O)CN2CCCCC2)C1` registered a thermodynamic solubility below 1 µM. In series [2], `NC(=O)N1CCc2c(c(-c3ccc(Cl)c(C#Cc4ccc(Cl)c(C(=O)NC[C@@H]5CCCN5)c4)c3)nn2CCCN2CCSCC2)C1` gave a solubility (thermodynamic) of 175 µM (≈ 119 µg/mL). In addition, at Cathepsin S [1], the IC50 came out at 620 nM.

In the case of `NC(=O)N1CCc2c(c(-c3ccc(Cl)c(C#Cc4ccc(CNCc5ccc(Cl)cc5)cc4)c3)nn2CCCN2CCN(c3ccccc3)CC2)C1`, the IC50 on Cathepsin S [1] was 710 nM.

With `NC(=O)N1CCc2c(c(-c3ccc(Cl)c(C#Cc4ccc(C(=O)NC[C@@H]5CCCN5)cc4)c3)nn2CCCN2CCSCC2)C1`, the solubility (thermodynamic) in series [2] came out at 81 µM (≈ 52.3 µg/mL). Besides, the IC50 on Cathepsin S [1] was above 10000 nM.

Turning to `C[C@@H]1COCCN1CCCn1nc(-c2ccc(Cl)c(C#Cc3ccc(CNCc4ccc(Cl)cc4)cc3)c2)c2c1CCN(C(=O)C(N)=O)C2`, the solubility (thermodynamic) in series [2] is below 1 µM. For the same compound, the “inhibition (INH)” value in series [4] is reported as “Not Active”. Besides, the figures for the IC50 on Cathepsin S [1] and against Cathepsin S [3] were 960 nM and 50 nM, respectively. For `NC(=O)N1CCc2c(c(-c3ccc(Cl)c(C#Cc4ccc(CNCc5ccc(Cl)cc5)cc4)c3)nn2CCCN2CCOCC2)C1`, at Cathepsin S [1], the IC50 came out at 440 nM. In turn, `CS(=O)(=O)N1CCc2c(c(-c3ccc(Cl)c(C#Cc4ccc(CNCc5ccc(Cl)cc5)cc4)c3)nn2CCCN2CCOCC2)C1` registered a solubility (thermodynamic) in series [2] below 1 µM. In series [2], `CN(C)C(=O)C(=O)N1CCc2c(c(-c3ccc(Cl)c(C#Cc4ccc(CNCc5ccc(Cl)cc5)cc4)c3)nn2CCCN2CCOCC2)C1` registered a solubility (thermodynamic) below 1 µM. The IC50 at Cathepsin S [1] was 1750 nM. In the same order, the values of `NC(=O)N1CCc2c(c(-c3ccc(Cl)c(C#Cc4ccc(Cl)c(C(=O)NCCN5CCOCC5)c4)c3)nn2CCCN2CCSCC2)C1` are 9 µM (≈ 6.4 µg/mL) and 610 nM. For the compound `C[C@@H]1COCCN1CCCn1nc(-c2ccc(Cl)c(C#Cc3ccc(CNCc4ccc(Cl)cc4)cc3)c2)c2c1CCN(C(N)=O)C2`, in series [2], the solubility (thermodynamic) is 3 µM (≈ 2.02 µg/mL). Besides, the IC50 on Cathepsin S [1] was found to be 1540 nM; against Cathepsin S [3], 110 nM. Turning to `NC(=O)C(=O)N1CCc2c(c(-c3ccc(Cl)c(C#Cc4ccc(CNCc5ccc(Cl)cc5)cc4)c3)nn2CCCN2CCC(C(F)(F)F)CC2)C1`, in series [2], the solubility (thermodynamic) was below 1 µM. At Cathepsin S [1], the IC50 is 1770 nM. `NC(=O)C(=O)N1CCc2c(c(-c3ccc(Cl)c(C#Cc4ccc(CNCc5ccc(Cl)cc5)cc4)c3)nn2CCCN2CCN(c3ccccc3)CC2)C1` gave a thermodynamic solubility in series [2] below 1 µM. In addition, the IC50 at Cathepsin S [1] was 560 nM; against Cathepsin S [3], 10 nM.

`NC(=O)C(=O)N1CCc2c(c(-c3ccc(Cl)c(C#Cc4ccc(CNCc5ccc(Cl)cc5)cc4)c3)nn2CCCN2CCOCC2)C1` gave a thermodynamic solubility in series [2] below 1 µM. Besides, the IC50 at Cathepsin S [1] was found to be 510 nM; on Cathepsin S [3], 60 nM. Regarding `NC(=O)C(=O)N1CCc2c(c(-c3ccc(Cl)c(C#Cc4ccc(CNCc5ccc(Cl)cc5)cc4)c3)nn2CCCN2CCCCC2)C1`, the IC50 on Cathepsin S [1] worked out at 300 nM.
